Source: US8008299B2, “Urotensin II receptor antagonists” (Janssen Pharmaceutica, N.V., priority 2007, dated 2011)
Where two headings read alike, the source gives them in different places.

Experiments:
[1] = molecular target: T1, rat GPR14 (U-II receptor) (Rattus norvegicus, UniProt P49684); assay: Rat UII Calcium Mobilization FLIPR Assay; type: cell-based; conditions: CHO cells transfected with rat GPR14; antagonist activity after 5 min incubation vs agonist (Ac)-CFWK(2-NaI)C-NH2 at 1 nM
T1 construct: expressed in transfected cells
T1 sequence (P49684 1-386): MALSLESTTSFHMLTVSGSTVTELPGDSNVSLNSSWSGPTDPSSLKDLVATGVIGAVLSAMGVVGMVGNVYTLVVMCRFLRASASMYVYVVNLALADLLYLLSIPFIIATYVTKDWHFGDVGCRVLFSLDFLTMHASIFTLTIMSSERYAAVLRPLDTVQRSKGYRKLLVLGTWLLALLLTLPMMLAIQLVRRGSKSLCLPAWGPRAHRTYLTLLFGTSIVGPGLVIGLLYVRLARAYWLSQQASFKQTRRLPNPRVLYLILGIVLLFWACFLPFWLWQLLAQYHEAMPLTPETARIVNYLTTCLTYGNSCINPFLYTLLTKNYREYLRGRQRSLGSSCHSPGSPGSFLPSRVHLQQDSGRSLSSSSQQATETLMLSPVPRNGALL
Description: To derive these cells, the complete coding sequence of rat U-II (Genbank Accession No. U32673) was amplified by nested PCR from rat heart marathon-Ready cDNA. […] The PCR products were cloned into pcDNA3 (Invitrogen) digested with EcoR I and Xba I. Clones containing rat U-II receptor were verified by complete sequencing of the U-II receptor insert to ensure a lack of PCR-introduced errors. The constructed vector was transfected into CHO cells by using lipofectamine (GIBCO BRL). CHO cells with high expression of rat U-II receptor were selected and established as stable cell lines by using G418. CHO cells were seeded at 25,000 cells per well into 96-well, black-wall, clear-bottom microtiter plates 24 h before assay. Cells in culture media (DMEM/F12 containing 15 mM HEPES, L-glutamine, pyridoxine hydrochloride; 10% fetal bovine serum; 1 mg/mL G418 sulfate; antibiotic-antimycotic; pH 7.4) were loaded with proprietary dye, from the FLIPR Calcium Assay Kit (Molecular Devices), prepared in assay buffer (Hanks Balanced Salts Solution, 20 mM HEPES, 0.1% BSA, 2.5 mM probenecid, pH 7.4), and incubated for 1 h at 37° C. Calcium mobilization determinations were performed at room temperature (23° C.).

[2] = molecular target: T2, Human UII (U-II receptor) in 6D9 human rhabdomyosarcoma cells (Homo sapiens, UniProt Q9UKP6); assay: Human UII Calcium Mobilization Assay; type: cell-based; conditions: 6D9 human rhabdomyosarcoma cells, FLIPR TETRA, average; read-out: Human UII Ca+ Mobilization Average IC50
T2 construct: 6D9: isolated by dilution subcloning of RMS13 cells, ATCC® Number: CRL-2061; host or cells: 6D9 human rhabdomyosarcoma cells (subclone of RMS13)
T2 sequence (Q9UKP6 1-389): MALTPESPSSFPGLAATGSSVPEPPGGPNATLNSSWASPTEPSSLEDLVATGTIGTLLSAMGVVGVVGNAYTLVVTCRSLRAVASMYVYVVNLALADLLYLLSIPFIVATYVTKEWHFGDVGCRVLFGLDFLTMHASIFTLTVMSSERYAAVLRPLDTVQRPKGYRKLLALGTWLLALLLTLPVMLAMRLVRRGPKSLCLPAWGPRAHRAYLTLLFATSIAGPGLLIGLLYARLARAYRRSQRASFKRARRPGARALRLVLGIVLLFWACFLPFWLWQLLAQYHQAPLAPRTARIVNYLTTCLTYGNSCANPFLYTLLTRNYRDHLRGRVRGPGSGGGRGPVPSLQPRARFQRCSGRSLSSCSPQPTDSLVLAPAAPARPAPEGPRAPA
Description: 25 μL of dye solution was added to the wells such that the final liquid volume before agonist/antagonist treatment was 50 μL for all assays. The cell plates were incubated at 37° C. for 45 minutes and the fluorescence intensity was measured on a Fluorometric Imaging Plate Reader (FLIPR^TETRA, Molecular Devices, Sunnyvale, Calif.).
Antagonist and agonist U-II were added at room temperature on the FLIPR^TETRA, and the fluorescence intensity before and after addition was measured over a period of 4 minutes. The dye incubation time and temperature as well as instrument setting was adjusted so the fluorescence intensity could be compared between plates on the same day. EC50 and IC50 were analyzed using GraphPad Prism 4 software (GraphPad Software Inc., San Diego, Calif.).
For assays, U-II agonist, U-II antagonist and urantide were diluted with HBSS/HEPES containing 0.01% FBS.
Test compounds were dissolved in DMSO at 10 mM concentration. The serial dilutions were carried out in HBSS/HEPES. The highest final DMSO concentration was at 0.1%.

[3] = molecular target: T3, UT receptors in HSMM (Human Skeletal Muscle Myoblasts) (Homo sapiens, UniProt Q9UKP6); assay: Human Radioligand Binding Assay ((^125I)-U-II binding to intact HSMM)
T3 sequence (Q9UKP6 1-389): T2 sequence (Q9UKP6 1-389)

[4] = read-out: Human UII Average Binding Ki, intact HSMM, 0.150 nM (^125I)-U-II, 3 h, 25° C.

| Structure (SMILES) | IC50 [1] [nM] | IC50 [2] [nM] | Ki [3] [nM] | Ki [3, 4] [nM] |
| --- | --- | --- | --- | --- |
| CCN1CCN(c2cccc3c2CN([C@H](CCCn2cnc4ccccc42)c2ccc(OC)c(OC)c2)C3=O)CC1 [Cpd 29, 2-[(1R)-4-benzoimidazol-1-yl-1-(3,4-dimethoxy-phenyl)-butyl]-4-(4-ethyl-piperazin-1-yl)-2,3-dihydro-isoindol-1-one] | 14 | 380 | 56 |  |
| CCN1CCN(c2cccc3c2CN([C@H](CCCNS(=O)(=O)c2cnc(C)n2C)c2ccc(OC)c(OC)c2)C3=O)CC1 [Cpd 49, 2,3-dimethyl-3H-imidazole-4-sulfonic acid {(4R)-4-(3,4-dimethoxy-phenyl)-4-[4-(4-ethyl-piperazin-1-yl)-1-oxo-1,3-dihydro-isoindol-2-yl]-butyl}-amide] | 2 | 64 | 13 |  |
| CCN1CCC(c2cccc3c2CN([C@H](CCCN(C)S(=O)(=O)c2cccs2)c2ccc(OC)c(OC)c2)C3=O)CC1 [Cpd 2, thiophene-2-sulfonic acid {(4R)-4-(3,4-dimethoxy-phenyl)-4-[4-(1-ethyl-piperidin-4-yl)-1-oxo-1,3-dihydro-isoindol-2-yl]-butyl}-methyl-amide] | 32 | 695 | 50 |  |
| CCN1CCN(c2cccc3c2CN([C@H](CCCNc2nc(C)cc(C)n2)c2ccc(OC)c(OC)c2)C3=O)CC1 [Cpd 12, 2-[(1R)-1-(3,4-dimethoxy-phenyl)-4-(4,6-dimethyl-pyrimidin-2-ylamino)-butyl]-4-(4-ethyl-piperazin-1-yl)-2,3-dihydro-isoindol-1-one] | 12 | 844 | 54 |  |
| CCN1CCN(c2cccc3c2CN([C@H](CCCNC(=O)c2cn(C)cn2)c2ccc(OC)c(OC)c2)C3=O)CC1 [Cpd 57, 1-methyl-1H-imidazole-4-carboxylic acid {(4R)-4-(3,4-dimethoxy-phenyl)-4-[4-(4-ethyl-piperazin-1-yl)-1-oxo-1,3-dihydro-isoindol-2-yl]-butyl}-amide] | 245 | 913 | 49 |  |
| CCN1CCN(c2cccc3c2CN([C@H](CCCOc2ccccc2)c2ccc(OC)c(OC)c2)C3=O)CC1 [Cpd 50, 2-[(1R)-1-(3,4-dimethoxy-phenyl)-4-phenoxy-butyl]-4-(4-ethyl-piperazin-1-yl)-2,3-dihydro-isoindol-1-one] | 7 | 482 | 23 |  |
| CCNCCC[C@H](c1ccc(OC)c(OC)c1)N1Cc2c(cccc2N2CCN(CC)CC2)C1=O [Cpd 69, 2-[(1R)-1-(3,4-dimethoxy-phenyl)-4-ethylamino-butyl]-4-(4-ethyl-piperazin-1-yl)-2,3-dihydro-isoindol-1-one] | 820 | > 10000 | 199 |  |
| CCN1CCC(C(c2ccc(OC)c(OC)c2)N2Cc3c(cccc3N3CCN(CC)CC3)C2=O)CC1 (stereo not drawn) [Cpd 42, 2-[(3,4-dimethoxy-phenyl)-(1-ethyl-piperidin-4-yl)-methyl]-4-(4-ethyl-piperazin-1-yl)-2,3-dihydro-isoindol-1-one] | 3600 | > 10000 | > 300 |  |
| CCN1CCN(c2cccc3c2CN([C@H](CCCNc2nccc(C(F)(F)F)n2)c2ccc(OC)c(OC)c2)C3=O)CC1 [Cpd 22, 2-[(1R)-1-(3,4-dimethoxy-phenyl)-4-(4-trifluoromethyl-pyrimidin-2-ylamino)-butyl]-4-(4-ethyl-piperazin-1-yl)-2,3-dihydro-isoindol-1-one] | 3 | 187 | 13 |  |
| CCN(CC)CCC[C@H](c1ccc(OC)c(OC)c1)N1Cc2c(cccc2N2CCN(CC)CC2)C1=O [Cpd 68, 2-[(1R)-4-diethylamino-1-(3,4-dimethoxy-phenyl)-butyl]-4-(4-ethyl-piperazin-1-yl)-2,3-dihydro-isoindol-1-one] | 178 | 2040 | > 300 |  |
| CCN1CCN(c2cccc3c2CN(C(CC2CCN(S(=O)(=O)c4cccs4)CC2)c2ccc(OC)c(OC)c2)C3=O)CC1 (stereo not drawn) [Cpd 18, 2-{1-(3,4-dimethoxy-phenyl)-2-[1-(thiophene-2-sulfonyl)-piperidin-4-yl]-ethyl}-4-(4-ethyl-piperazin-1-yl)-2,3-dihydro-isoindol-1-one] | 9 | 659 | 19 |  |
| COc1ccc([C@@H](CCCN(C)S(=O)(=O)c2cccs2)N2Cc3c(cccc3N3CCN(C(C)C)CC3)C2=O)cc1OC [Cpd 8, thiophene-2-sulfonic acid {(4R)-4-(3,4-dimethoxy-phenyl)-4-[4-(4-isopropyl-piperazin-1-yl)-1-oxo-1,3-dihydro-isoindol-2-yl]-butyl}-methyl-amide] | 2 | 177 |  | 11 |
| COc1ccc([C@@H](CCCNS(=O)(=O)c2cccs2)N2Cc3c(cccc3N3CCN(C(C)C)CC3)C2=O)cc1OC [Cpd 65, thiophene-2-sulfonic acid {(4R)-4-(3,4-dimethoxy-phenyl)-4-[4-(4-isopropyl-piperazin-1-yl)-1-oxo-1,3-dihydro-isoindol-2-yl]-butyl}-amide] | 3 | 53 |  | 4 |
| CCN1CCN(c2cccc3c2CN([C@H](CCCNc2ncccn2)c2ccc(OC)c(OC)c2)C3=O)CC1 [Cpd 48, 2-[(1R)-1-(3,4-dimethoxy-phenyl)-4-(pyrimidin-2-ylamino)-butyl]-4-(4-ethyl-piperazin-1-yl)-2,3-dihydro-isoindol-1-one] | 61 | 496 | 48 |  |
| COc1ccc([C@@H](CCCN(C)S(=O)(=O)c2cccs2)N2Cc3c(cccc3N3CCN(C4CCC4)CC3)C2=O)cc1OC [Cpd 9, thiophene-2-sulfonic acid [(4R)-4-[4-(4-cyclobutyl-piperazin-1-yl)-1-oxo-1,3-dihydro-isoindol-2-yl]-4-(3,4-dimethoxy-phenyl)-butyl]-methyl-amide] | 4 | 511 |  | 44 |
| CCN1CCN(c2cccc3c2CN(C(c2ccc(OC)c(OC)c2)C2CCN(S(=O)(=O)c4cn(C)c(C)n4)CC2)C3=O)CC1 (stereo not drawn) [Cpd 44, 2-{(3,4-dimethoxy-phenyl)-[1-(1,2-dimethyl-1H-imidazole-4-sulfonyl)-piperidin-4-yl]-methyl}-4-(4-ethyl-piperazin-1-yl)-2,3-dihydro-isoindol-1-one] | 7330 | 3060 | > 300 |  |
| CCN1CCN(c2cccc3c2CN([C@H](CCCN(C)Cc2ccccc2)c2ccc(OC)c(OC)c2)C3=O)CC1 [Cpd 3, 2-[(1R)-4-(benzyl-methyl-amino)-1-(3,4-dimethoxy-phenyl)-butyl]-4-(4-ethyl-piperazin-1-yl)-2,3-dihydro-isoindol-1-one] | 4 | 71 | 34 |  |
